This note sets out measurements from patent US11186614B2, “Anti-HIV peptides” (priority 2016, dated 2021).

Entries after “also recorded” stand apart in the source; their conditions may differ.

In assay [1] the test system is U1hpII. In words: ELISA RNA binding of SUMO fusion proteins, U1hpII. The text has this:
(§1) FIG. 6A-B depicts SUMO-(GGS)3-β2-β3 and graphs of ELISA data. (A) Diagram of the SUMO-(GGS)3-β2-β3 hairpin loop of TBP6.7 fused to SUMO.
(§2) Protein engineering was used to test whether an isolated β2-β3 hairpin of TBP6.7 (FIG. 2) retains TAR binding. Specifically, a fusion protein was created comprising the TBP6.7 β2-β3 hairpin (FIG. 6A) linked by flexible, soluble spacer (GGS)3 to SUMO (Small Ubiquitin-like Modifier), a 12 kDa protein that expresses well in E. coli and stabilizes a variety of structurally diverse fusion proteins.^114 The affinity for TAR was then measured by ELISA (FIG. 6B).
(§3) To test for TAR binding by the isolated β2-β3 loop sequence, we first fused this short peptide to SUMO (Small Ubiquitin-like Modifier). […] Arg-to-Ala mutants were then tested.
(§4) SUMO is 12 kDa protein that expresses well in E. coli and stabilizes a variety of diverse fusion proteins. A β2-β3 loop peptide comprising the sequence L^41-to-F^59—or mutants thereof—was fused to a flexible GGS linker at the SUMO C-terminus, and RNA binding was measured by ELISA. […] Stapling was accomplished by inserting nucleophiles using L44C and F56C mutations. Following treatment with a reducing agent (DTT), chemical cyclization was achieved by SNAr conjugation using polyfluorinated biarylsulfoxide; β2-β3 loop peptides with R-to-A mutations were prepared similarly. […]

The test system of another assay is HIV TAR. In words: ELISA RNA binding of SUMO fusion proteins, HIV TAR. Also noted: species or system HIV-1.
Excerpt: as §1, §2, §3, §4
Background: In an ELISA, binding on a coated surface is turned into a signal by an enzyme label.

Assay [2] has as its system U1hpII. In words: SPR binding to U1hpII. As to conditions: FIG. 4D. The text has this:
FIG. 4A-F depict the TBP evolution screen.
In general terms: SPR reads the build-up and loss of mass on a sensor chip optically.

A further assay concerns BIV TAR. In words: ELISA RNA binding of SUMO fusion proteins, BIV TAR. Also noted: species or system Bovine immunodeficiency virus.
Excerpt: as §1, §2, §3, §4

The test system of the next assay is TAR. As to conditions: FIG. 4D.

Take “U1A: parental RRM protein, starting protein whose native target is U1hpII”: the “ELISA binding to U1hpII” value with U1hpII [1] is “highest relative level of binding; also recorded: binds U1hpII”. The “ELISA binding to HIV TAR” value in the assay on HIV TAR is on record as “did not interact with BIV or HIV TAR”. For the same molecule, the “SPR recognition of U1hpII” value in the assay on U1hpII [2] is “tightly binds U1hpII”. For the same molecule, in the assay on BIV TAR, the “ELISA binding to BIV TAR” value is “did not interact with BIV or HIV TAR”. For the same molecule, the “SPR recognition of TAR” value with TAR is recorded as “does not bind TAR”.

B1: SUMO: Small Ubiquitin-like Modifier, a 12 kDa protein, fusion partner control (protein, UniProt Q12306 2-98, looked up)
Ubiquitin-like protein SMT3: SDSEVNQEAKPEVKPEVKPETHINLKVSDGSSEIFFKIKKTTPLRRLMEAFAKRQGKEMDSLRFLYDGIRIQADQTPEDLDMEDNDIIEAHREQIGG
Turning to B1, in the assay with U1hpII [1], the “ELISA binding to U1hpII” value was “no appreciable RNA binding; also recorded: does not bind”. In addition, in the assay with HIV TAR, the “ELISA binding to HIV TAR” value is reported as “does not have appreciable TAR binding; also recorded: no appreciable RNA binding; also recorded: does not bind”. For the same molecule, the “ELISA binding to BIV TAR” value in the assay on BIV TAR is reported as “no appreciable RNA binding; also recorded: does not bind”.
